Source: patent US7205295B2, “Benzoxazin-3-ones and derivatives thereof as therapeutic agents” (Warner-Lambert Company LLC, priority 2002, dated 2007)

The molecules below were run against T1, PI3Kγ (p101/p110γ protein) (Homo sapiens, UniProt P48736) (assay: PI3Kγ In Vitro Kinase Assay). Settings: purified recombinant p101/p110γ with G protein β1/γ2 subunits; 20 μM ATP, 25 μM PIP2; 20 minutes at room temperature.
T1 construct: HA; made in house; host or cells: Spodoptera frugiperda (Sf9) cells, baculovirus co-infection
T1 sequence (P48736 whole entry, species assumed): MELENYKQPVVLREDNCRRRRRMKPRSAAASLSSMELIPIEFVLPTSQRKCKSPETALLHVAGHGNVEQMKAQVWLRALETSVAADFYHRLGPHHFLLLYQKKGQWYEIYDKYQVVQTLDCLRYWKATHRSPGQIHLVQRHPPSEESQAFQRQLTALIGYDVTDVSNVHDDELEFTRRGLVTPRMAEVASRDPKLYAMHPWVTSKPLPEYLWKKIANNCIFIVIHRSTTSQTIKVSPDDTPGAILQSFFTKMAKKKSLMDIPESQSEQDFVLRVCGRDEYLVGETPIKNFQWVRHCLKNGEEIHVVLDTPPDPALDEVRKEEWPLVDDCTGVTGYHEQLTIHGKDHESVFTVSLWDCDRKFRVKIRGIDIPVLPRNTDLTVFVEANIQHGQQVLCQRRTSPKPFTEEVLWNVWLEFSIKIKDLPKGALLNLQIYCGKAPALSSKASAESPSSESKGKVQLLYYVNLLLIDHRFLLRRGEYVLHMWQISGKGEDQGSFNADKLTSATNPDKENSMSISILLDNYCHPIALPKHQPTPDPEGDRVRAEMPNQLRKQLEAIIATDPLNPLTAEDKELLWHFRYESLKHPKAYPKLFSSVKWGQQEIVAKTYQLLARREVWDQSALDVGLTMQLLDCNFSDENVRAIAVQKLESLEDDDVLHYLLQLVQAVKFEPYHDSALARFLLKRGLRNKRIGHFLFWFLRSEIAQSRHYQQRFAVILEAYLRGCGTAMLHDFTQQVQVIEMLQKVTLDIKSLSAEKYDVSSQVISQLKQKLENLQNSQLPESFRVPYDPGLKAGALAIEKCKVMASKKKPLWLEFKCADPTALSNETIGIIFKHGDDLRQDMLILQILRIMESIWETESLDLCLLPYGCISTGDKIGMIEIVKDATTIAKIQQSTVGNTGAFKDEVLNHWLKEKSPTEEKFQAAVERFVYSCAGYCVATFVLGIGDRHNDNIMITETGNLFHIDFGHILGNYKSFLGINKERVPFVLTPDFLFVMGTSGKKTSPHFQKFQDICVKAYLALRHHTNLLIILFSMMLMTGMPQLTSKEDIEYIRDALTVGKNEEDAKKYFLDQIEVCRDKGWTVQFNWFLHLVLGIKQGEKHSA
T1 sequence (Q8WYR1 whole entry partner, species assumed): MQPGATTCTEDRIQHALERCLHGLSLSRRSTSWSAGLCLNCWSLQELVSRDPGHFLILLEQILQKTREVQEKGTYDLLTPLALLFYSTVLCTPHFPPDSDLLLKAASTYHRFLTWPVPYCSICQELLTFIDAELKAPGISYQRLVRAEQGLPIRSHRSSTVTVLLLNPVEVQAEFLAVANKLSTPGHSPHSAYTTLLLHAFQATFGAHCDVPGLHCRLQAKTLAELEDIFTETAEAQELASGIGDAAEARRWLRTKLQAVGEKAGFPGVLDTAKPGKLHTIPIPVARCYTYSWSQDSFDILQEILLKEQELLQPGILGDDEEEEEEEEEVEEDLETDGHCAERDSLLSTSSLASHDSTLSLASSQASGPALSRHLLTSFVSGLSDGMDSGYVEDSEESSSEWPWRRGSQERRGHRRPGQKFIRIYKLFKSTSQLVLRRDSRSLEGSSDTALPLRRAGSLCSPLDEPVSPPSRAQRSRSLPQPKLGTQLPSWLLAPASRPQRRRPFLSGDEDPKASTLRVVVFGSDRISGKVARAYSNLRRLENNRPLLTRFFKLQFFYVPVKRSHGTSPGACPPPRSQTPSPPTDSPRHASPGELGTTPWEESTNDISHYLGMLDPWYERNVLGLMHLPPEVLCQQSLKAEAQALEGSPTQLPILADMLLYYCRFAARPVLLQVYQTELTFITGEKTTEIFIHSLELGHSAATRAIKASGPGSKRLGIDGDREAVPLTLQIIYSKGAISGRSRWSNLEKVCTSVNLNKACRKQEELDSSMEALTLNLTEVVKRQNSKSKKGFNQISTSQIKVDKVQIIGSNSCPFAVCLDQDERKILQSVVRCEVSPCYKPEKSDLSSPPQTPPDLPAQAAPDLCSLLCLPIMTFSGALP
Type: biochemical
Procedure, shortened: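 Sf9-expressed, purified human p101/p110γ (2.7 nM) was activated by Gβ1/γ2 (57.7 nM) and reacted with 20 μM ATP plus [γ-32P]ATP on PIP2 (25 μM)/PE (300 μM) micelles with 10 mM MgCl2 in HEPES buffer. Reactions ran 20 min at room temperature. Filter-captured radiolabeled PIP3 was counted by scintillation.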
With `Cc1cc(C)cc(C(C)N2C(=O)COc3ccc(C=C4SC(=S)NC4=O)cc32)c1` (stereo not shown) [Example 218, 4-[1-(3,5-Dimethyl-phenyl)-ethyl]-6-(4-oxo-2-thioxo-thiazolidin-5-ylidenemethyl)-4H-1,4-benzoxazin-3-one] the IC50 was 55 nM. With `CC(C)(C)c1cc(CN2C(=O)COc3ccc(C=C4SC(=O)NC4=O)cc32)cc(C(C)(C)C)c1O` [Example 219, 5-[4-(3,5-Di-tert-butyl-4-hydroxy-benzyl)-3-oxo-3,4-dihydro-2H-1,4-benzoxazin-6-ylmethylene]-thiazolidine-2,4-dione] the IC50 was 6 nM. `CC(C)(C)c1cc(CN2C(=O)COc3c(F)cc(C=C4SC(=S)NC4=O)cc32)cc(C(C)(C)C)n1` [Example 220, 4-(2,6-Di-tert-butyl-pyridin-4-ylmethyl)-8-fluoro-6-(4-oxo-2-thioxo-thiazolidin-5-ylidenemethyl)-4H-1,4-benzoxazin-3-one] showed an IC50 of 495 nM. `Cc1cc(C=C2SC(=S)NC2=O)cc2c1OCC(=O)N2Cc1cc(C(C)(C)C)nc(C(C)(C)C)c1` [Example 221, 4-(2,6-Di-tert-butyl-pyridin-4-ylmethyl)-8-methyl-6-(4-oxo-2-thioxo-thiazolidin-5-ylidenemethyl)-4H-1,4-benzoxazin-3-one] was tested, and the IC50 was 895 nM. `CN1CCN(Cc2cc(CN3C(=O)COc4ccc(C=C5SC(=S)NC5=O)cc43)cc(C(C)(C)C)c2)CC1` [Example 222, 4-[3-tert-Butyl-5-(4-methyl-piperazin-1-ylmethyl)-benzyl]-6-(4-oxo-2-thioxo-thiazolidin-5-ylidenemethyl)-4H-1,4-benzoxazin-3-one] showed an IC50 of 6 nM. With `CC1Oc2ccc(C=C3SC(=S)NC3=O)cc2N(Cc2ccc(CN3CCN(C)CC3)cc2)C1=O` (stereo not shown) [Example 223, 2-Methyl-4-[4-(4-methyl-piperazin-1-ylmethyl)-benzyl]-6-(4-oxo-2-thioxo-thiazolidin-5-ylidenemethyl)-4H-1,4-benzoxazin-3-one] the IC50 was 295 nM. `Cc1cc(C=C2SC(=O)NC2=O)cc2c1OCC(=O)N2Cc1cc(C(C)(C)C)nc(C(C)(C)C)c1` [Example 224, 5-[4-(2,6-Di-tert-butyl-pyridin-4-ylmethyl)-8-methyl-3-oxo-3,4-dihydro-2H-1,4-benzoxazin-6-ylmethylene]-thiazolidine-2,4-dione] showed an IC50 of 255 nM. Molecule `O=C1NC(=S)SC1=Cc1ccc2c(c1)N(Cc1cc(Cl)nc(Cl)c1)C(=O)CO2` [Example 225, 4-(2,6-Dichloro-pyridin-4-ylmethyl)-6-(4-oxo-2-thioxo-thiazolidin-5-ylidenemethyl)-4H-1,4-benzoxazin-3-one] has an IC50 of 49 nM. Molecule `O=C1NC(=O)C(=Cc2ccc3c(c2)N(Cc2cc(Cl)nc(Cl)c2)C(=O)CO3)S1` [Example 226, 5-[4-(2,6-Dichloro-pyridin-4-ylmethyl)-3-oxo-3,4-dihydro-2H-1,4-benzoxazin-6-ylmethylene]-thiazolidine-2,4-dione] has an IC50 of 34200 nM. With `O=C1NC(=O)C(=Cc2ccc3c(c2)N(Cc2ccncc2)C(=O)CO3)S1` [Example 227, 5-(3-Oxo-4-pyridin-4-ylmethyl-3,4-dihydro-2H-1,4-benzoxazin-6-ylmethylene)-thiazolidine-2,4-dione] the IC50 was 48 nM. Work on `CN1CCN(Cc2ccc(CN3C(=O)COc4ccc(C=C5SC(=O)NC5=O)cc43)cc2)CC1` [Example 228, 5-{4-[4-(4-Methyl-piperazin-1-ylmethyl)-benzyl]-3-oxo-3,4-dihydro-2H-1,4-benzoxazin-6-ylmethylene}-thiazolidine-2,4-dione] yielded an IC50 of 3 nM. `Cc1cc(CN2C(=O)COc3ccc(C=C4SC(=S)NC4=O)cc32)cc(C)n1` [Example 229, 4-(2,6-Dimethyl-pyridin-4-ylmethyl)-6-(4-oxo-2-thioxo-thiazolidin-5-ylidenemethyl)-4H-1,4-benzoxazin-3-one] gave an IC50 of 20 nM. Molecule `Cc1cc(CN2C(=O)COc3ccc(C=C4SC(=O)NC4=O)cc32)cc(C)n1` [Example 230, 5-[4-(2,6-Dimethyl-pyridin-4-ylmethyl)-3-oxo-3,4-dihydro-2H-1,4-benzoxazin-6-ylmethylene]-thiazolidine-2,4-dione] has an IC50 of 43 nM. In the case of `COC(=O)c1nc(CN2C(=O)COc3ccc(C=C4SC(=S)NC4=O)cc32)ncc1OC` [Example 231, 5-Methoxy-2-[3-oxo-6-(4-oxo-2-thioxo-thiazolidin-5-ylidenemethyl)-2,3-dihydro-1,4-benzoxazin-4-ylmethyl]-pyrimidine-4-carboxylic acid methyl ester], the IC50 is reported as 50 nM. In the case of `Cc1cc(C)nc(CN2C(=O)COc3ccc(C=C4SC(=S)NC4=O)cc32)n1` [Example 232, 4-(4,6-Dimethyl-pyrimidine-2-ylmethyl)-6-(4-oxo-2-thioxo-thiazolidin-5-ylidenemethyl)-4H-benzo[1,4]oxazin-3-one], the IC50 is reported as 125 nM. With `O=C1NC(=S)SC1=Cc1cc(F)c2c(c1)N(Cc1ccc(Cl)c(C(F)(F)F)c1)C(=O)CO2` [Example 233, 4-(4-Chloro-3-trifluoromethyl-benzyl)-8-fluoro-6-(4-oxo-2-thioxo-thiazolidin-5-ylidenemethyl)-4H-1,4-benzoxazin-3-one] the IC50 was 35 nM. `CC(C)(C)c1cc(C(C)(C)C)nc(CN2C(=O)COc3ccc(CC4SC(=S)NC4=O)cc32)n1` (stereo not shown) [Example 234, 4-(4,6-Di-tert-butyl-pyrimidin-2-ylmethyl)-6-(4-oxo-2-thioxo-thazolidin-5-ylmethyl)-4H-benzo[1,4]oxazin-3-one] gave an IC50 of 2070 nM. `CC(C)(C)c1cc(C(C)(C)C)nc(CN2C(=O)COc3c(F)cc(CC4SC(=S)NC4=O)cc32)n1` (stereo not shown) [Example 235, 4-(4,6-Di-tert-butyl-pyrimidin-2-ylmethyl)-8-fluoro-6-(4-oxo-2-thioxo-thazolidin-5-ylmethyl)-4H-benzo[1,4]oxazin-3-one] was tested, and the IC50 was 1240 nM. `CC(C)(C)c1cc(CN2C(=O)COc3c(F)cc(CC4SC(=S)NC4=O)cc32)cc(C(C)(C)O)c1` (stereo not shown) [Example 236, 4-[3-tert-Butyl-5(1-hydroxy-1-methyl-ethyl)-benzyl]-8-fluoro-6-(4-oxo-2-thioxo-thazolidin-5-ylmethyl)-4H-benzo[1,4]oxazin-3-one] was tested, and the IC50 was 5 nM. Work on `CC(C)(C)c1cc(CN2C(=O)COc3ccc(C=C4SC(=S)NC4=O)cc32)cc(C(C)(C)O)c1` [Example 237, 4-[3-tert-Butyl-5(1-hydroxy-1-methyl-ethyl)-benzyl]-6-(4-oxo-2-thioxo-thazolidin-5-ylmethyl)-4H-benzo[1,4]oxazin-3-one] yielded an IC50 of 6 nM. For `O=C1NC(=S)SC1=Cc1ccc2c(c1)N(Cc1ccc(CN3CCC4(CCCCC4)CC3)cc1)C(=O)CO2` [Example 238, 4-[4-(3-Aza-spiro[5.5]undec-3-ylmethyl)-benzyl]-6-(4-oxo-2-thioxo-thiazolidin-5-ylidenemethyl)-4H-benzo[1,4]oxazin-3-one], the IC50 was 36 nM. `O=C1NC(=O)C(=Cc2ccc3c(c2)N(Cc2ccc(CN4CCC5(CCCCC5)CC4)cc2)C(=O)CO3)S1` [Example 239, 5-{4-[4-(3-Aza-spiro[5.5]undec-3-ylmethyl)-benzyl]-3-oxo-3,4-dihydro-2H-benzo[1,4]oxazin-6-ylmethylene}-thiazolidine-2,4-dione] was tested, and the IC50 was 39 nM. For `CCOC(=O)N1CCN(Cc2ccc(CN3C(=O)COc4ccc(C=C5SC(=O)NC5=O)cc43)cc2)CC1` [Example 240, 4-{4-[6-(2,4-Dioxo-thiazolidin-5-ylidenemethyl)-3-oxo-2,3-dihydro-1,4-benzoxazin-4-ylmethyl]-benzyl}-piperazine-1-carboxylic acid ethyl ester], the IC50 was 32 nM. `CCOC(=O)N1CCN(Cc2ccc(CN3C(=O)COc4ccc(C=C5SC(=S)NC5=O)cc43)cc2)CC1` [Example 241, 4-{4-[3-Oxo-6-(4-oxo-2-thioxo-thiazolidin-5-ylidenemethyl)-2,3-dihydro-benzo[1,4]oxazin-4-ylmethyl]-benzyl}-piperazine-1-carboxylic acid ethyl ester] showed an IC50 of 52 nM. Molecule `O=C1NC(=S)SC1=Cc1cc(F)c2c(c1)N(CCCN1CCCCC1)C(=O)CO2` [Example 243] has an IC50 of 180 nM. `CC1CC(C)CN(CCCN2C(=O)COc3c(F)cc(C=C4SC(=S)NC4=O)cc32)C1` (stereo not shown) [Example 244, 4-[3-(3,5-Dimethyl-piperidin-1-yl)-propyl]-8-fluoro-6-(4-oxo-2-thioxo-thiazolidin-5-ylidenemethyl)-4H-benzo[1,4]oxazin-3-one] was tested, and the IC50 was 185 nM. `CC(C)N(CCCN1C(=O)COc2c(F)cc(C=C3SC(=S)NC3=O)cc21)C(C)C` [Example 245, 4-(3-Diisopropylamino-propyl)-8-fluoro-6-(4-oxo-2-thioxo-thiazolidin-5-ylidenemethyl)-4H-benzo[1,4]oxazin-3-one] was tested, and the IC50 was 185 nM. `O=C1NC(=O)C(=Cc2ccc3c(c2)N(Cc2ccc(Cl)c(Cl)c2)C(=O)CO3)S1` [Example 246, 5-[4-(3,4-Dichloro-benzyl)-3-oxo-3,4-dihydro-2H-benzo[1,4]oxazin-6-ylmethylene]-thiazolidine-2,4-dione] gave an IC50 of 3 nM. In the case of `CC(C)(C)c1cc(CN2C(=O)COc3ccc(C=C4OC(=S)NC4=O)cc32)cc(C(C)(C)C)c1` [Example 247, 4-(3,5-Di-tert-butyl-benzyl)-6-(4-oxo-2-thioxo-oxazolidin-5-ylidenemethyl)-4H-1,4-benzoxazin-3-one], the IC50 is reported as 10 nM. Work on `CC(=O)Oc1ccc(CN2C(=O)COc3ccc(C=C4SC(=S)NC4=O)cc32)cc1` [Example 248, Acetic acid 4-[3-oxo-6-(4-oxo-2-thioxo-thiazolidin-5-ylidenemethyl)-2,3-dihydro-1,4-benzoxazin-4-ylmethyl]-phenyl ester] yielded an IC50 of 21 nM. `O=C1NC(=O)C(=Cc2ccc3c(c2)N(Cc2ccc(OCc4ccccc4)cc2)C(=O)CO3)S1` [Example 249, 5-[4-(4-Benzyloxy-benzyl)-3-oxo-3,4-dihydro-2H-1,4-benzoxazin-6-ylmethylene]-thiazolidine-2,4-dione] gave an IC50 of 8 nM.
